How the values were obtained:
S. aureus Newman [1] = assay: Bliss interaction score (quartile over a dose matrix) (fitness difference); higher = more antagonism (negative = synergy)
How it was run: (§1)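 The Bliss score is observed minus expected fitness under the product model, reported as quartiles over technical, biological and donor/recipient replicates. Fitness is the OD595 at entry into stationary phase divided by the plate's robust no-drug mean and capped at 1. Single-drug fitness was inferred from combination data.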

B. subtilis 168 [2] = assay: as above
How it was run: as §1

S. aureus DSM 20231 = assay: as above
How it was run: as §1

S. pneumoniae D39V [3] = assay: as above
How it was run: as §1

S. aureus Newman [4] = assay: fitness (endpoint OD595 vs no drug) (fraction); higher = more growth
How it was run: (§2)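 Fitness is computed from the optical density at which cultures reach stationary phase, divided by the robust mean of no-drug control wells. Any value above 1 is set to 1. Cultures started at OD595 0.01 in 384-well plates with TSB, LB Lennox or CY at 37 °C, and OD595 was read every 30 min for 14 h against a first-reading background.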

B. subtilis 168 [5] = assay: as above
How it was run: as §2

S. pneumoniae D39V [6] = assay: as above
How it was run: as §2
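Throughout, for Bliss interaction score (quartile over a dose matrix): first quartile when negative (synergy) and third quartile when positive (antagonism).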

Cc1ncc([N+](=O)[O-])n1CCO [Metronidazole] + CN[C@@H]1[C@H](O[C@H]2[C@H](O[C@H]3[C@H](O)[C@@H](O)[C@H](N=C(N)N)[C@@H](O)[C@@H]3N=C(N)N)O[C@@H](C)[C@]2(O)C=O)O[C@@H](CO)[C@H](O)[C@H]1O [Streptomycin]
Details	Bliss interaction score
B. subtilis 168 [2]	0.0729
S. aureus DSM 20231	0.0693
S. aureus Newman [1]	0.0764
S. pneumoniae D39V [3]	0.0448

fitness
Details	partner 1 µg/mL	partner 2 µg/mL	partner 4 µg/mL	partner 8 µg/mL
B. subtilis 168 [5], first compound 0.625 µg/mL	–	0.996	0.657	0.0295
B. subtilis 168 [5], first compound 1.25 µg/mL	–	0.997	0.633	0.0395
B. subtilis 168 [5], first compound 2.5 µg/mL	–	0.995	0.636	0.0352
S. aureus Newman [4], first compound 0.625 µg/mL	0.91	0.956	0.909	–
S. aureus Newman [4], first compound 0.781 µg/mL	0.966	0.899	–	–
S. aureus Newman [4], first compound 1.25 µg/mL	0.986	0.967	0.935	–
S. aureus Newman [4], first compound 1.562 µg/mL	≥ 1	0.917	–	–
S. aureus Newman [4], first compound 2.5 µg/mL	0.928	0.938	0.889	–
S. aureus Newman [4], first compound 3.124 µg/mL	0.982	0.926	–	–
S. pneumoniae D39V [6], first compound 1.073 µg/mL	–	0.903	0.992	0.945
S. pneumoniae D39V [6], first compound 1.25 µg/mL	–	–	0.992	0.891
S. pneumoniae D39V [6], first compound 2.145 µg/mL	–	0.935	0.977	0.932
S. pneumoniae D39V [6], first compound 2.5 µg/mL	–	–	0.998	0.893
S. pneumoniae D39V [6], first compound 4.29 µg/mL	–	0.871	0.905	0.945
S. pneumoniae D39V [6], first compound 5 µg/mL	–	–	0.981	0.907

fitness, S. pneumoniae D39V [6], one replicate
Details	first compound 1.25 µg/mL	first compound 2.5 µg/mL	first compound 5 µg/mL
partner 2 µg/mL	≥ 1	≥ 1	0.987
partner 16 µg/mL	0.815	0.787	0.818

O=C(O)c1cn(C2CC2)c2cc(N3CCNCC3)c(F)cc2c1=O [Ciprofloxacin] + CC(C1CCC(C(O1)OC2C(CC(C(C2O)OC3C(C(C(CO3)(C)O)NC)O)N)N)N)NC [Gentamicin]
main component drawn
Details	Bliss interaction score
B. subtilis 168 [2]	0.19
S. aureus DSM 20231	0.0655
S. aureus Newman [1]	0.12
S. pneumoniae D39V [3]	-0.0953

fitness, S. aureus Newman [4], one replicate, main component drawn
Details	first compound 0.0375 µg/mL	first compound 0.075 µg/mL	first compound 0.15 µg/mL
partner 0.375 µg/mL	0.704	0.787	0.0591
partner 0.75 µg/mL	0.712	0.728	0.0774
partner 1.5 µg/mL	0.639	0.175	0.0856

main component drawn
Details	fitness
B. subtilis 168 [5], first compound 0.0098 µg/mL, partner 0.0625 µg/mL	0.881
B. subtilis 168 [5], first compound 0.0195 µg/mL, partner 0.0625 µg/mL	0.703
B. subtilis 168 [5], first compound 0.039 µg/mL, partner 0.25 µg/mL	0.117
S. aureus Newman [4], first compound 0.0375 µg/mL, partner 0.5 µg/mL	0.786
S. aureus Newman [4], first compound 0.0375 µg/mL, partner 1 µg/mL	0.877
S. aureus Newman [4], first compound 0.0375 µg/mL, partner 2 µg/mL	0.917
S. aureus Newman [4], first compound 0.075 µg/mL, partner 0.5 µg/mL	0.74
S. aureus Newman [4], first compound 0.075 µg/mL, partner 1 µg/mL	0.786
S. aureus Newman [4], first compound 0.075 µg/mL, partner 2 µg/mL	0.783
S. aureus Newman [4], first compound 0.15 µg/mL, partner 0.5 µg/mL	0.43
S. pneumoniae D39V [6], first compound 0.125 µg/mL, partner 2 µg/mL	0.954
S. pneumoniae D39V [6], first compound 0.125 µg/mL, partner 4 µg/mL	0.92
S. pneumoniae D39V [6], first compound 0.125 µg/mL, partner 8 µg/mL	0.884
S. pneumoniae D39V [6], first compound 0.25 µg/mL, partner 2 µg/mL	0.792
S. pneumoniae D39V [6], first compound 0.25 µg/mL, partner 4 µg/mL	0.766
S. pneumoniae D39V [6], first compound 0.25 µg/mL, partner 8 µg/mL	0.677

C[C@@H]1O[C@@H]1P(=O)(O)O [Fosfomycin] + CN[C@@H]1[C@H](O[C@H]2[C@H](O[C@H]3[C@H](O)[C@@H](O)[C@H](N=C(N)N)[C@@H](O)[C@@H]3N=C(N)N)O[C@@H](C)[C@]2(O)C=O)O[C@@H](CO)[C@H](O)[C@H]1O [Streptomycin]
Details	Bliss interaction score
B. subtilis 168 [2]	-0.187
S. aureus DSM 20231	-0.14
S. aureus Newman [1]	-0.106
S. pneumoniae D39V [3]	-0.0437

fitness
Details	partner 1 µg/mL	partner 2 µg/mL	partner 4 µg/mL	partner 8 µg/mL
B. subtilis 168 [5], first compound 1.562 µg/mL	–	0.664	–	–
B. subtilis 168 [5], first compound 3.124 µg/mL	–	0.399	–	–
S. aureus Newman [4], first compound 0.781 µg/mL	0.599	0.565	–	–
S. aureus Newman [4], first compound 1.562 µg/mL	0.517	0.467	–	–
S. aureus Newman [4], first compound 3.124 µg/mL	0.156	0.131	0.0427	–
S. pneumoniae D39V [6], first compound 1.25 µg/mL	–	0.919	0.921	0.902
S. pneumoniae D39V [6], first compound 2.5 µg/mL	–	0.903	0.9	0.918
S. pneumoniae D39V [6], first compound 5 µg/mL	–	0.715	0.747	0.722

S. pneumoniae D39V [6], partner 16 µg/mL, one replicate
Details	fitness
first compound 1.25 µg/mL	0.765
first compound 2.5 µg/mL	0.714
first compound 5 µg/mL	0.436

O=C(O)c1cn(C2CC2)c2cc(N3CCNCC3)c(F)cc2c1=O [Ciprofloxacin] + CN(N=O)C(=O)N[C@@H](C=O)[C@@H](O)[C@H](O)[C@H](O)CO [Streptozotocin]
Details	Bliss interaction score
B. subtilis 168 [2]	-0.082
S. aureus DSM 20231	-0.0435
S. aureus Newman [1]	-0.112
S. pneumoniae D39V [3]	-0.0511

Details	fitness
B. subtilis 168 [5], first compound 0.0098 µg/mL, partner 0.15 µg/mL	0.886
B. subtilis 168 [5], first compound 0.0098 µg/mL, partner 0.3 µg/mL	0.954
B. subtilis 168 [5], first compound 0.0098 µg/mL, partner 0.6 µg/mL	0.887
B. subtilis 168 [5], first compound 0.0195 µg/mL, partner 0.15 µg/mL	0.674
B. subtilis 168 [5], first compound 0.0195 µg/mL, partner 0.3 µg/mL	0.678
B. subtilis 168 [5], first compound 0.0195 µg/mL, partner 0.6 µg/mL	0.666
B. subtilis 168 [5], first compound 0.039 µg/mL, partner 0.15 µg/mL	0.117
B. subtilis 168 [5], first compound 0.039 µg/mL, partner 0.3 µg/mL	0.119
B. subtilis 168 [5], first compound 0.039 µg/mL, partner 0.6 µg/mL	0.13
S. aureus Newman [4], first compound 0.0375 µg/mL, partner 0.15 µg/mL	0.602
S. aureus Newman [4], first compound 0.0375 µg/mL, partner 0.3 µg/mL	0.565
S. aureus Newman [4], first compound 0.0375 µg/mL, partner 0.6 µg/mL	0.398
S. aureus Newman [4], first compound 0.075 µg/mL, partner 0.15 µg/mL	0.448
S. aureus Newman [4], first compound 0.075 µg/mL, partner 0.6 µg/mL	0.194
S. aureus Newman [4], first compound 0.15 µg/mL, partner 0.15 µg/mL	0.0223
S. aureus Newman [4], first compound 0.15 µg/mL, partner 0.3 µg/mL	0.0444
S. aureus Newman [4], first compound 0.15 µg/mL, partner 0.6 µg/mL	0.0059
S. pneumoniae D39V [6], first compound 0.125 µg/mL, partner 1.2 µg/mL	0.929
S. pneumoniae D39V [6], first compound 0.125 µg/mL, partner 2.4 µg/mL	0.926
S. pneumoniae D39V [6], first compound 0.125 µg/mL, partner 4.8 µg/mL	0.95
S. pneumoniae D39V [6], first compound 0.25 µg/mL, partner 1.2 µg/mL	0.839
S. pneumoniae D39V [6], first compound 0.25 µg/mL, partner 4.8 µg/mL	0.797
S. pneumoniae D39V [6], first compound 0.5 µg/mL, partner 4.8 µg/mL	0.567

O=C(O)c1cn(C2CC2)c2cc(N3CCNCC3)c(F)cc2c1=O [Ciprofloxacin] + COc1cccc2c1C(=O)c1c(O)c3c(c(O)c1C2=O)C[C@@](O)(C(=O)CO)C[C@@H]3O[C@H]1C[C@H](N)[C@H](O)[C@H](C)O1 [Doxorubicin]
Details	Bliss interaction score
B. subtilis 168 [2]	-0.0827
S. aureus DSM 20231	0.154
S. aureus Newman [1]	0.193
S. pneumoniae D39V [3]	-0.0454

Details	fitness
B. subtilis 168 [5], first compound 0.0098 µg/mL, partner 0.625 µg/mL	0.908
B. subtilis 168 [5], first compound 0.0098 µg/mL, partner 1.25 µg/mL	0.872
B. subtilis 168 [5], first compound 0.0195 µg/mL, partner 0.625 µg/mL	0.702
B. subtilis 168 [5], first compound 0.0195 µg/mL, partner 1.25 µg/mL	0.628
B. subtilis 168 [5], first compound 0.039 µg/mL, partner 0.625 µg/mL	0.186
B. subtilis 168 [5], first compound 0.039 µg/mL, partner 1.25 µg/mL	0.131
B. subtilis 168 [5], first compound 0.039 µg/mL, partner 2.5 µg/mL	0.037
S. aureus Newman [4], first compound 0.0375 µg/mL, partner 0.625 µg/mL	0.634
S. aureus Newman [4], first compound 0.0375 µg/mL, partner 1.25 µg/mL	0.667
S. aureus Newman [4], first compound 0.0375 µg/mL, partner 2.5 µg/mL	0.658
S. aureus Newman [4], first compound 0.075 µg/mL, partner 0.625 µg/mL	0.689
S. aureus Newman [4], first compound 0.075 µg/mL, partner 1.25 µg/mL	0.698
S. aureus Newman [4], first compound 0.075 µg/mL, partner 2.5 µg/mL	0.642
S. aureus Newman [4], first compound 0.15 µg/mL, partner 1.25 µg/mL	0.203
S. aureus Newman [4], first compound 0.15 µg/mL, partner 2.5 µg/mL	0.15
S. pneumoniae D39V [6], first compound 0.125 µg/mL, partner 0.25 µg/mL	0.899
S. pneumoniae D39V [6], first compound 0.125 µg/mL, partner 0.5 µg/mL	0.914
S. pneumoniae D39V [6], first compound 0.125 µg/mL, partner 1 µg/mL	0.821
S. pneumoniae D39V [6], first compound 0.25 µg/mL, partner 0.25 µg/mL	0.745
S. pneumoniae D39V [6], first compound 0.25 µg/mL, partner 0.5 µg/mL	0.774
S. pneumoniae D39V [6], first compound 0.25 µg/mL, partner 1 µg/mL	0.694

Reference: the supplement of paper PMC10627819
